Results on 2 substances are retold here after patent publication US4421685A, “Process for producing an insulin” (Eli Lilly and Company, priority 1981, dated 1983).

One assay deals with rabbit blood glucose. Nature of the assay: USP rabbit assay (rabbit blood glucose assay). It is filed as in vivo. The settings on record: 144 rabbits; zinc insulin crystals redissolved in 0.01 N HCl. An excerpt: (§1) Moreover, the product can be assayed for purity and activity by recognized methods such as polyacrylamide gel electrophoresis, amino acid analysis, insulin radioreceptorassay, insulin radioimmunoassay, high performance liquid chromatography (HPLC), ultraviolet spectrum, dansylation, rabbit blood glucose assay, and the like.
The resulting human insulin preparation was judged to be quite pure by polyacrylamide gel electrophoresis (a single band), amino acid analysis, insulin radioreceptorassay, insulin radioimmunoassay, HPLC, dansylation and UV spectrum. […] (anhydrous).

The target in another assay is insulin receptor (Homo sapiens, UniProt P06213). Nature of the assay: insulin radioreceptor assay. It is filed as binding.
Excerpt: as §1
After acidification to pH 3.15 with glacial acetic acid, a portion of this solution was gel filtered on a 1.5×90 cm. column of Sephadex G-50 (Superfine) equilibrated and eluted with 1 M acetic acid at 4°-8° C. The [N-formyl-Gly^1 A] human insulin peak (elution volume 87-95 ml.) was pooled, aliquotted and lyophilized. This protein was judged to be quite clean by HPLC and amino acid analysis. The bioactivity of [N-formyl-Gly^1 -A] human insulin evaluated by radioreceptor assay was 17% relative to a human insulin standard.

insulin receptor, sequence (P06213 28-758 limits assumed): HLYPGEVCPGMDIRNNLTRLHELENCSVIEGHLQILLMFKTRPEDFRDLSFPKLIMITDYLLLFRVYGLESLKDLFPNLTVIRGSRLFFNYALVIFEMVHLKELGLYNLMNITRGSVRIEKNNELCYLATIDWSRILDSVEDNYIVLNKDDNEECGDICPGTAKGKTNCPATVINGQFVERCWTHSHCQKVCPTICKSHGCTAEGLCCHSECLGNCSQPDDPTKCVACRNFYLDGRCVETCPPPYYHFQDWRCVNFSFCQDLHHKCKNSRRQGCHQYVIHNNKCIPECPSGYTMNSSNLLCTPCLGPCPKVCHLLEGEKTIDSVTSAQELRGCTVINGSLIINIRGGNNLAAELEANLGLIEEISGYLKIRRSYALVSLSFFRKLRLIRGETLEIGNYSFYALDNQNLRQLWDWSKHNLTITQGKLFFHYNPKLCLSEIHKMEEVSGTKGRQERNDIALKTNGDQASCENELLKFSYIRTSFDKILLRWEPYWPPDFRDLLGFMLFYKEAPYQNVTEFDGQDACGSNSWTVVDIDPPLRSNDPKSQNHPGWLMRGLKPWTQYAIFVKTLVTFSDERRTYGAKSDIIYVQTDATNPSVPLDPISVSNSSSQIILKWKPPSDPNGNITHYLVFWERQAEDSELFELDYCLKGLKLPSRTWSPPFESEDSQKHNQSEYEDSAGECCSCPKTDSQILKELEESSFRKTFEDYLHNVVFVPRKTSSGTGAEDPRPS
insulin receptor, sequence (P06213 763-1382 partner limits assumed): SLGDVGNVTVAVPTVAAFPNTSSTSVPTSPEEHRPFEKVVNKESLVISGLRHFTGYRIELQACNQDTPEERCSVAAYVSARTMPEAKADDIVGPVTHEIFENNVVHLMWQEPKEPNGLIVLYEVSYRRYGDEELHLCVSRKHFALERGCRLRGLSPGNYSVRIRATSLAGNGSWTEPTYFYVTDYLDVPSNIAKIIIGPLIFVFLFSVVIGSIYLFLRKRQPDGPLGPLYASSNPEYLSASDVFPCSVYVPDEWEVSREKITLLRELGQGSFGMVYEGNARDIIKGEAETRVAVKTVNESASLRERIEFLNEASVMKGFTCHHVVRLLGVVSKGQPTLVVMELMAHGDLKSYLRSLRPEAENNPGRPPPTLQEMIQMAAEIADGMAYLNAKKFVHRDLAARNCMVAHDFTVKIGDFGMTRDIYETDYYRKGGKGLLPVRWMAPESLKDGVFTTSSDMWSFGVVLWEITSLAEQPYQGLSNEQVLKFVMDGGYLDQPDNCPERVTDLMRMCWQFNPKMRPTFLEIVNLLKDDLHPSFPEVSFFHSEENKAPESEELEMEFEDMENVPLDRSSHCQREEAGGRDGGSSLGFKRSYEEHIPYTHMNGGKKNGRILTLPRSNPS

Turning to human insulin, the “potency, USP rabbit assay” value with rabbit blood glucose is recorded as 26.3±1.8 units per mg. (anhydrous).
In the case of [N-formyl-Gly^1 -A] human insulin, the “bioactivity evaluated by radioreceptor assay relative to a human insulin standard” value on insulin receptor was 17%.
